# In BindingDB's records for doi:10.1016/j.ejmech.2016.03.076 (Chinese Academy of Sciences (Cas), 2016):
# Columns and labels:
# [1] = Inhibition of c-Met in human MKN45 cells assessed as reduction in cell proliferation after 72 hrs by SRB or MTT assay
# [2] = Inhibition of c-Met in human EBC-1 cells assessed as reduction in cell proliferation after 72 hrs by SRB or MTT assay
# [3] = Inhibition of TPR-MET in mouse BAF3 cells assessed as reduction in cell proliferation after 72 hrs by SRB or MTT assay
Compound,IC50 [1] [nM],IC50 [2] [nM],IC50 [3] [nM]
"Cn1cc(-c2ccc3nnc(C(F)(F)c4ccc5ncccc5c4)n3n2)cn1 [US9062045, Comparator No. 1 (JNJ-38877605)]",9.5,5.5,8.6
Fc1ccc(-c2cnc3nnc(C(F)(F)c4ccc5ncccc5c4)n3n2)cc1,0.46,0.85,–
